Test results from patent US5880134A, “Method for using ergoline compounds to effect physiological and pathological functions at the 5-HT7 receptor” (Eli Lilly and Company, priority 1997, dated 1999).

Tests used:
human 5-HT7 receptor [1] = target: T1, human 5-HT7 receptor (Homo sapiens, UniProt P34969); conditions: cited from earlier work; for pharmacological profile (rank order of affinity): human 5-HT7, [3H]5-HT competition
rat 5-HT7 receptor = conditions: cited from earlier work; for pharmacological profile (rank order of affinity): rat 5-HT7, [125I]LSD and [3H]5-HT
[2] = target: T2, 5-HT7 receptor in the dog coronary artery (Canis lupus familiaris, UniProt A0A8I3S709); assay: 5-HT-induced relaxation of endothelium-denuded canine coronary artery rings precontracted with PGF2α (Schild / dissociation constant analysis); type: cell-based; conditions: for relaxant activity in canine coronary artery: agonist; for pEC50 values between vehicle and compound-treated tissues: 1 μM, p<0.05, Student's t-test; for blockade of 5-HT-induced relaxation: compounds III and V 1 μM, compound IV 10-100 nM, 1 hr incubation; for slope of the Schild regression: Schild plot; for slope: Table 2, Schild regression
T2 construct: The left anterior descending and circumflex coronary arteries were dissected from the hearts; from tissue; host or cells: dog left anterior descending and circumflex coronary artery rings (mongrel dogs), endothelium removed
Description: (§1) Hearts were obtained from mongrel dogs anesthetized with sodium pentobarbital (30 mg/kg, i.v.) and placed in oxygenated modified Krebs' solution of the following composition (millimolar): NaCl, 118; KCl, 4.6; CaCl2, 1.6; KH2 PO4, 1.2; MgSO4 1.2, glucose, 10; NaHCO3 24.8 (pH 7.4). The left anterior descending and circumflex coronary arteries were dissected from the hearts, cleaned of fat and adhering tissue and cut into rings (approximately 2-3 mm outer diameter and 4-5 mm in length). The intimal surface of the rings was gently rubbed with a pair of forceps to remove the endothelium. Tissues were then mounted between two stainless steel hooks and placed in 10 ml organ chambers constantly exposed to oxygenated modified Krebs' solution (95% O2 /5% CO2; pH 7.4; 37° C.). Tissues were equilibrated for 1 hour under an initial optimal passive force of 4 g determined previously from length-tension experiments. The buffer was replaced every 15 minutes during equilibration. Isometric force was measured with Statham UC3 force transducers connected to a Beckman dynograph (R611). After 1 hr equilibration, tissues were depolarized twice with 50 mM KCl for 30 min with a 20 min washing period between. The integrity of the endothelium was examined with acetylcholine (1 μM), bradykinin (100 nM), or the ionophore A23187 (1 μM). Rings that relaxed to these agents were not used in this study.
Cumulative concentration-response curves to 5-HT were generated in tissues incubated with either vehicle or antagonist for 1 hr. In some experiments contraction was measured in tissues under basal tone upon the cumulative addition of 5-HT. These tissues were treated with prazosin (1 μM) to block any potential a adrenoceptor activation and in the absence or presence of antagonist.
(§2) All results are expressed as mean ±S.E. where "n" represents the number of rings examined. No more than two rings were used from each animal for each compound studied. The relaxation data is expressed as percent relaxation of the contraction produced by PGF2α. The contraction data is expressed as percent of a maximal KCl (50 mM) contraction. The EC50 was the concentration of the agonist producing half-maximal response and was determined by least squares linear regression analysis of the linear portion or the agonist concentration-response curve and expressed as -log C50 (pEC50)
Apparent antagonist dissociation constants (KB) were determined for each antagonist according to the following equation: [formula] where (B) is the concentration of the antagonist and dose ratio is the EC50 of the agonist in the presence of the antagonist divided by the EC50 of the agonist in vehicle treated tissues. […] Significant differences between vehicle and antagonist treated tissues were determined with Student's t-test. The alpha value was set a priori at 0.05.
The data was also analyzed in accord with the procedure of Arunlakshana and Schild (1959). The dose ratio was determined at various concentrations of antagonist compound II or compound IV. If blockade is competitive under equilibrium conditions a plot of the logarithm (dose ratio--1) against the negative logarithm of the molar concentration of antagonist should yield a straight line whose slope is not different from unity and whose intercept on the abscissa is the pA2, which is generally considered to be equivalent to -log KB.

[3] = test system: contractile 5-HT receptor in the canine coronary artery; assay: Contraction of endothelium-denuded canine coronary artery under basal tone; type: cell-based
Description: as §1
Tissues prepared as described in Example 1 were precontracted with PGF2α (10 μM) which produced a tonic contraction that remained at or above 92.8±2.1% (n=14) of the original maximum force throughout the experiment. Cumulative concentration-response curves to 5-HT were generated in tissues incubated with either vehicle or antagonist for 1 hr. In some experiments contraction was measured in tissues under basal tone upon the cumulative addition of 5-HT. These tissues were treated with prazosin (1 μM) to block any potential a adrenoceptor activation and in the absence or presence of antagonist.
as §2

[4] = test system: contractile 5-HT receptor in the canine coronary artery; conditions: agonist alone, vessels under basal tone, as previously reported (Cushing et al.); cited from earlier work
human 5-HT7 receptor [5] = target: T1, human 5-HT7 receptor; assay: Receptor binding at the human 5-HT7 receptor
Description: The general chemical structure for three particularly useful compounds of the invention (compounds III-V) are shown below: [drawing 3]
The KD and --logKB value for compound II, a known 5-HT7 antagonist, and two compounds employed by the present invention, compound III and IV, are shown in Table 1.

[6] = Bioavailability after oral administration in rats; type: in vivo, rat
5-HT7 receptor = conditions: expressed in mammalian cells; cited from earlier work
[7] = compared with ester compounds II and V

T1 sequence (P34969 1-445 isoform P34969-2): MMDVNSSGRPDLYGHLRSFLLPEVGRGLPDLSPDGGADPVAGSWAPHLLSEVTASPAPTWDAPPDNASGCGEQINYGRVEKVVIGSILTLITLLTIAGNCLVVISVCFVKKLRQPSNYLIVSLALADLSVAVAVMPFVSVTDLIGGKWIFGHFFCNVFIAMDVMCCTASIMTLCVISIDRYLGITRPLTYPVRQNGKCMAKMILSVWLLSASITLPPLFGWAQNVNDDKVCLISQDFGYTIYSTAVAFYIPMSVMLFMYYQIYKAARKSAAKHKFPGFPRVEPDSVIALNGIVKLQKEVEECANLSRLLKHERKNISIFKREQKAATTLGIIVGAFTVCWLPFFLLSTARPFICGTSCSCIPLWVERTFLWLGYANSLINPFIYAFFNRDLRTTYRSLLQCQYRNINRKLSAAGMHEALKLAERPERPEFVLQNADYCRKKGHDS
T2 sequence (A0A8I3S709 1-435): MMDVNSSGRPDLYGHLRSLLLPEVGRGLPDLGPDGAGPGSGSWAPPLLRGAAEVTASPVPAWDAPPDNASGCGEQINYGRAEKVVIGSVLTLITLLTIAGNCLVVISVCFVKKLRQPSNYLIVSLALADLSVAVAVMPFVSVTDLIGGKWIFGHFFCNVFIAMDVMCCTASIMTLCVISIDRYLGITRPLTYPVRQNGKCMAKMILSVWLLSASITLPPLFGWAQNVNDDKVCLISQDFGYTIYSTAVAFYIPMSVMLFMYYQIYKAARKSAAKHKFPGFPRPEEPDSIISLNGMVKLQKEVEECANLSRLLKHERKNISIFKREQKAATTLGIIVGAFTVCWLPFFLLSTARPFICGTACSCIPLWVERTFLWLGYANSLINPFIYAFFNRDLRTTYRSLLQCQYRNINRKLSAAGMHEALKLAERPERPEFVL

CCCN(CCC)C1CCc2cccc(O)c2C1 (stereo not shown) [8-OH DPAT, 8-hydroxy-2-(di-n-propyl-amino)-tetralin]
pharmacological profile (rank order of affinity) (human 5-HT7 receptor [1]): 5CT>5 MeOT≥5HT>8-OH DPAT | pharmacological profile (rank order of affinity) (rat 5-HT7 receptor): 5CT>5MeOT≥5HT>8-OH-DPAT

NCCc1c[nH]c2ccc(C(N)=O)cc12 [Compound 5-CT, 5-carboxamidotryptamine]
relaxant activity in canine coronary artery [2]: potent relaxant agonist | affinity of canine coronary artery relaxant receptor for 5CT versus serotonin [2]: highest affinity for 5-HT7 receptors | affinity of canine coronary artery relaxant receptor for 5CT versus serotonin ([2]; listed as 5CT): greater affinity for 5CT than for the endogenous agonist serotonin | contraction by agonist ([3]; agonist alone, under basal tone or precontracted): did not significantly contract coronary arteries | contraction by agonist in the presence of compound IV ([3]; compound IV 1 μM, basal tone): concentration-dependently contracted canine coronary artery | pharmacological profile (rank order of affinity) (human 5-HT7 receptor [1]): 5CT>5 MeOT≥5HT>8-OH DPAT | affinity of 5CT over serotonin (human 5-HT7 receptor [1]; human 5-HT7): greater affinity of 5CT over serotonin | pharmacological profile (rank order of affinity) (rat 5-HT7 receptor): 5CT>5MeOT≥5HT>8-OH-DPAT | binding affinity of 5CT over serotonin (rat 5-HT7 receptor; rat 5-HT7): higher binding affinity of 5CT over serotonin

NCCc1c[nH]c2ccc(O)cc12 [Compound 5-HT, 5-hydroxytryptamine]
contractile response of agonist [4]: produced a biphasic contractile response | pharmacological profile (rank order of affinity) (human 5-HT7 receptor [1]): 5CT>5 MeOT≥5HT>8-OH DPAT | pharmacological profile (rank order of affinity) (rat 5-HT7 receptor): 5CT>5MeOT≥5HT>8-OH-DPAT

COc1ccc2[nH]cc(CCN)c2c1 [Compound 5-MeOT, 5-methoxytryptamine]
contractile response of agonist [4]: produced a biphasic contractile response | pharmacological profile (rank order of affinity) (human 5-HT7 receptor [1]): 5CT>5 MeOT≥5HT>8-OH DPAT | pharmacological profile (rank order of affinity) (rat 5-HT7 receptor): 5CT>5MeOT≥5HT>8-OH-DPAT

CC(C)n1cc2c3c(cccc31)C1CC(C(=O)NC3CCCCC3)CN(C)C1C2 (stereo not shown) [Compound III]
binding affinity to the human 5-HT7 receptor (in words) (human 5-HT7 receptor [5]): high binding affinity | Kb [2]: 200 nM | pEC50 values between vehicle and compound-treated tissues [2]: significantly different | blockade of 5-HT-induced relaxation ([2]; compound II 0.3-10 μM): blocked 5-HT-induced relaxation in endothelium-denuded canine coronary artery rings in a competitive manner | bioavailability [6, 7]: greater bioavailability than the ester compounds II and V

CC(O)C(C)OC(=O)C1CC2c3cccc4c3c(cn4C(C)C)CC2N(C)C1 (stereo not shown) [Compound II]
Kb [2]: 316 nM | Schild slope versus unity ([2]; FIG. 1 lower panel): not significantly different from unity | slope of the Schild regression [2]: 0.92 | slope [2]: 0.92 | maximum relaxant response to 5-HT ([2]; compound II 0.3-10 μM): did not alter the maximum relaxant response | blockade of 5-HT-induced relaxation ([2]; compound II 0.3-10 μM): shifted the concentration-response curve to 5-HT significantly to the right

CC(C)n1cc2c3c(cccc31)C1CC(C(=O)NC3CCCC3O)CN(C)C1C2 (stereo not shown) [Compound IV]
binding affinity to the human 5-HT7 receptor (in words) (human 5-HT7 receptor [5]): high binding affinity | Kb [2]: 5.01 nM | slope of the Schild regression [2]: 0.98 | slope [2]: 0.98 | blockade of 5-HT-induced relaxation ([2]; compound II 0.3-10 μM): blocked 5-HT-induced relaxation in endothelium-denuded canine coronary artery rings in a competitive manner | effect on contractile response produced by 5-HT and 5-MeOT ([3]; 1 μM, basal tone): not affecting the contractile response | effect on relaxant phase of 5-HT and 5-MeOT response ([3]; 1 μM, basal tone): significantly attenuated the relaxant phase | effect on sumatriptan-induced contraction ([3]; 1 μM, basal tone, FIG. 7): did not significantly affect sumatriptan-induced contraction | bioavailability [6, 7]: greater bioavailability than the ester compounds II and V

COC1CCC(OC(=O)C2CC3c4cccc5c4c(cn5C(C)C)CC3N(C)C2)CC1 (stereo not shown) [Compound V]
Kb [2]: 398 nM | pEC50 values between vehicle and compound-treated tissues [2]: significantly different | blockade of 5-HT-induced relaxation ([2]; compound II 0.3-10 μM): blocked 5-HT-induced relaxation in an apparently competitive manner | bioavailability ([6]; compared with compound II): higher bioavailability than compound II

CCCCC[C@H](O)/C=C/[C@@H]1[C@@H](C/C=C\CCCC(=O)O)[C@@H](O)C[C@H]1O [PGF2α]
contraction retained throughout the experiment ([2]; PGF2α 10 μM, of the original maximum force, n=14): ≥ 92.8±2.1%

CN(C)CCC=C1c2ccccc2CCc2ccccc21 [amitriptyline]
affinity for the 5-HT7 receptor (5-HT7 receptor): high affinity

CN1CCN(C2=Nc3cc(Cl)ccc3Nc3ccccc32)CC1 [clozapine]
affinity for the 5-HT7 receptor (5-HT7 receptor): high affinity

CN1CCN(C2=Nc3ccccc3Oc3ccc(Cl)cc32)CC1 [loxapine]
affinity for the 5-HT7 receptor (5-HT7 receptor): high affinity

CNS(=O)(=O)Cc1ccc2[nH]cc(CCN(C)C)c2c1 [sumatriptan]
relaxant activity in canine coronary artery [2]: lacking relaxant activity
